Like-named read-outs stand apart in the source and are kept apart here.

Data set [1] relates to HUVEC. The format is cell-based, human. From the text:
The cellular mechanisms of angiogenesis involve motility and alignment of ECs to form a capillary tube-like network on matrigel. Thus, we assessed whether or not apoEdp impaired EC differentiation in the tube formation assay as described in the Materials and Methods. The numbers of tubular structures (Fig. 3A) were quantitatively analyzed. […] “Percentage (%) of inhibition” in Fig. 3C is the mean number (± SEM) of tubules expressed as a proportion of that in the VEGF control group. ** p<0.01 and *** p<0.001.
Figure 3 ApoEdp inhibited capillary tubule formation (in vitro angiogenesis). […] Tubular structures were quantitated by manual counting under low power fields. […] (C) “Percentage (%) of inhibition” is the mean number (± SEM) of tubules expressed as a proportion of that in the VEGF control group. ** p<0.01 and *** p<0.001. […]
Matrigel (Sigma Aldrich, St Louis, MO) was thawed overnight on ice. […] After 12–16 hr, microtubule formation was assessed with an inverted photomicroscope and the images were photographed using Olympus U-RLF-T microscope. Manual counting at low power fields was used to quantitate tubular structures and percentage of inhibition was expressed using VEGF control wells as 100%.

Data set [2] has as its system HUVEC. Nature of the data set: Boyden chamber migration/invasion assay. The format is cell-based, human. The note with it: Boyden chamber transwell, 50 ng/mL VEGF, 16 hr at 37°C, apoEdp 6–100 µM; read-out: IC50, inhibition of VEGF-induced HUVEC migration and invasion. An excerpt:
The complex process of new blood vessel formation involves migration and invasion of ECs. The inhibition of EC motility through migration and invasion could thus be expected to affect the angiogenic process. To evaluate the ability of apoEdp in blocking VEGF-induced HUVEC migration and invasion, we used a Boyden chamber transwell assay (Materials and Methods). We quantified the invasion of HUVECs across the transwell. Cells which invaded across the membrane were stained with hematoxylin and eosin stain and counted (Fig. 4A–B). […] All values were normalized to cell numbers of transwells exposed to EBM containing 1% FBS without apoEdp and VEGF.
Figure 4 ApoEdp inhibits endothelial cell invasion. About 4×10^4 HUVECs were placed into each insert of Boyden chamber ([…]) (BD Biosciences) of 24-well transwell plate. The bottom chambers were filled with 600 µL medium supplemented with 50 ng/mL VEGF. The top chamber was seeded with approximately 4×10^4 HUVEC cells/well in 100 µL containing different concentrations of apoEdp and incubated at 37°C for 16 hs. HUVEC cells were then fixed and stained with H&E and counted under the microscope. […]
Boyden chamber migration/invasion assays were performed. […] Transwell invaded cells were counted using an inverted microscope. Three independent areas per filter were counted, and the mean ± SEM number of migrated cells was calculated.

The subject of data set [3] is MDA-MB-231 tumor xenografts. The data set is described as follows: Xenograft tumor growth assay in nude mice. It is filed as in vivo. On the procedure:
In order to assess the in vivo effect of apoEdp on tumor growth, we established subcutaneous human breast cancer MDA-MB-231 tumor xenografts in nude mice. Once tumor size became ∼100 mm^3 in approximately 10 days, mice were randomly divided into two groups, and treated with PBS or apoEdp at 40 mg/kg/day for three consecutive days.
Figure 6 ApoEdp inhibits tumor growth in vivo. MDA-MB-231 breast cancer cells were used for anti-tumor studies. A suspension of 3×10^6 cells in 0.1 mL of PBS was injected in the right dorsal flank. Tumors were monitored weekly in two diameters with digital calipers. Tumor volumes were determined using A×B^2×0.52 (where A is the longest and B is the shortest diameter). Tumors were allowed to grow to ∼100 mm^3 and mice were randomized. Single intralesional administration daily of PBS or 40 mg/kg/day of apoEdp for 3 consecutive days was performed and then stopped. Representative photographs of mouse xenograft treated with (A) apoEdp or PBS are shown.
Female nu/nu mice (8–12 weeks old, weighing ∼20 g) were obtained from […] (Harlan, Indianapolis, IN). […] The growth of the tumor xenograft was evaluated by determining the tumor volume using digital calipers every 7 days. Tumor volume was calculated using the relationship A×B^2×0.52, where A is the longest diameter and B the shortest. […]

For the substance Ac-LRKLRKRLLLRKLRKRLL-NH2 [apoEdp], the results for the IC50 with HUVEC [1] and in the data set on HUVEC [2] were 9 µM and around 31.5 µM, respectively. Also, the “Tumor growth in MDA-MB-231 xenograft” value in data set [3] (nude (nu/nu) mice, 40 mg/kg/day intralesional for 3 consecutive days, compared to PBS-treated controls) is listed as “significantly inhibited tumor growth”. In data set [3] (nude mice, 40 mg/kg/day for 3 days, data not shown), the “Observable toxicity during treatment” value is “no sign of observable toxicity”.
